Experimental data published in paper PMC3203990 (The FEBS journal, 2011).

Molecular target: FtCCAP (Francisella tularensis class C acid phosphatase) (Francisella tularensis, UniProt Q5NH51)
Experiment: biochemical

FtCCAP (Francisella tularensis class C acid phosphatase), sequence (Q5NH51 22-247 limits assumed): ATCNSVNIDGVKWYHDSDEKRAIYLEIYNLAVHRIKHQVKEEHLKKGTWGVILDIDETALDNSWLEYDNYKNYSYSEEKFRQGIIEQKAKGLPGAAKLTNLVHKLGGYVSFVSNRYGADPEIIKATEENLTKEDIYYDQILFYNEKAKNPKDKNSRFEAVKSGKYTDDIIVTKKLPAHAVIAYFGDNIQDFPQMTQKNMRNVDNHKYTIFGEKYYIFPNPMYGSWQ

Which Ki does the source give for `Nc1ncnc2c1ncn2[C@@H]1O[C@H](COP(O)(O)=S)[C@@H](O)[C@H]1O` [AMPS] here?
The Ki was 300 ± 30 nM.
